SMILES strings stand for the structures.

For experiment [1], the target named is Epidermal growth factor receptor (Homo sapiens, UniProt P00533).
Description: Binding affinity to wild type human EGFR partial length (R669 to V1011 residues) expressed in bacterial expression system assessed as dissociation constant by DiscoverX kinomescan assay
The target of experiment [2] is T1, Epidermal growth factor receptor (Homo sapiens, UniProt P00533, L858R).
Description: Binding affinity to human partial length EGFR (R669 to V1011 residues) L858R mutant expressed in bacterial expression system assessed as dissociation constant by DiscoverX kinomescan assay
Experiment [3] deals with T1, Epidermal growth factor receptor. This is another data set of the same source.
Description: Inhibition of EGFR L858R mutant phosphorylation (unknown origin) in the presence of ATP
The target in experiment [4] is T2, Aurora kinase B/Inner centromere protein (Homo sapiens, UniProt Q96GD4).
Description: Inhibition of AURKB/INCENP (unknown origin) in the presence of ATP at Km concentration
The test system of another experiment is A549. The experiment is described as follows: Anticancer activity against human A549 cells harboring KRAS mutant assessed as inhibition of cell growth.
Experiment [5] deals with T2, Aurora kinase B/Inner centromere protein. This is another data set of the same source.
Description: Inhibition of AURKB/INCENP (unknown origin) preincubated for 60 mins in the presence of ATP at Km concentration
Experiment [6] has as its target T1, Epidermal growth factor receptor. The source holds these as a separate data set.
Description: Inhibition of EGFR L858R mutant phosphorylation (unknown origin) preincubated for 60 mins in the presence of ATP
For experiment [7], the target named is T3, Aurora kinase B (Homo sapiens, UniProt Q96GD4). As to the kind of experiment: Inhibition of AURKB (unknown origin) by nanoBRET assay.
Experiment [8] has as its target T3, Aurora kinase B.
Description: Binding affinity to human partial length AURKB (D25 to A303 residues) expressed in mammalian system assessed as dissociation constant by DiscoverX kinomescan assay
The next experiment deals with NCI-H1975. The experiment is described as follows: cells. As to conditions: Homo sapiens.

T2 sequence (Q96GD4 whole entry): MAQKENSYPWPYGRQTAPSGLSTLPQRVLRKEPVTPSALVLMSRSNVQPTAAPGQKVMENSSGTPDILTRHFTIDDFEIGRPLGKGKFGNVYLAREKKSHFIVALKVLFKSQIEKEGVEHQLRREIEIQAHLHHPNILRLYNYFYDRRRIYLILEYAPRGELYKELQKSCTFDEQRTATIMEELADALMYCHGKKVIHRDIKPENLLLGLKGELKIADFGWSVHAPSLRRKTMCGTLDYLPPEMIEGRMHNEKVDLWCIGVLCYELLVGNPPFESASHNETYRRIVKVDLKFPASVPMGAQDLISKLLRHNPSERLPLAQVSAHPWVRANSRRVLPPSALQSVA
T2 sequence (Q9NQS7 whole entry, further chain): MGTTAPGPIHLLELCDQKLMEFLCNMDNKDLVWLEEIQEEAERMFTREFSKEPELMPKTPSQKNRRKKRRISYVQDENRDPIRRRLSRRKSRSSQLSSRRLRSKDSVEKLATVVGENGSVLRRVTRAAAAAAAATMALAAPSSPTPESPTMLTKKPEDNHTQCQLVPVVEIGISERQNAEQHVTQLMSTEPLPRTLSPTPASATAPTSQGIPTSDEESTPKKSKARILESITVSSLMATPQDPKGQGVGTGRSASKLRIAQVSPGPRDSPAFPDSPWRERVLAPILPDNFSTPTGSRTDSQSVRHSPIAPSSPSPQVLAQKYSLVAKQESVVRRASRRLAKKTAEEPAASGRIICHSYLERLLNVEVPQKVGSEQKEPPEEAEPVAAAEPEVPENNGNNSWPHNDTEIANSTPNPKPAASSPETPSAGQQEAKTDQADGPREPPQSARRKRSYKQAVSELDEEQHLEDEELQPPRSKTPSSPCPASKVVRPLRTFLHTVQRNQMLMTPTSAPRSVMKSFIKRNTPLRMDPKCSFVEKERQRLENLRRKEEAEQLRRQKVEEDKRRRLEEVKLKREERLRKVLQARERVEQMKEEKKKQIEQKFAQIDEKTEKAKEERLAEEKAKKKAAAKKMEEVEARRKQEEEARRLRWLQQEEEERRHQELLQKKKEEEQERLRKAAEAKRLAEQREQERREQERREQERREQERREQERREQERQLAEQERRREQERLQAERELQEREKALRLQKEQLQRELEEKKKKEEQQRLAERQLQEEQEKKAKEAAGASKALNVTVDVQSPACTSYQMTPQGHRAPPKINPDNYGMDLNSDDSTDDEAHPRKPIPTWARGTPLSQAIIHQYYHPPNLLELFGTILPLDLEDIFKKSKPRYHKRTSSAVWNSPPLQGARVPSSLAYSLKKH
T1 sequence (P00533 25-1210 L858R limits assumed): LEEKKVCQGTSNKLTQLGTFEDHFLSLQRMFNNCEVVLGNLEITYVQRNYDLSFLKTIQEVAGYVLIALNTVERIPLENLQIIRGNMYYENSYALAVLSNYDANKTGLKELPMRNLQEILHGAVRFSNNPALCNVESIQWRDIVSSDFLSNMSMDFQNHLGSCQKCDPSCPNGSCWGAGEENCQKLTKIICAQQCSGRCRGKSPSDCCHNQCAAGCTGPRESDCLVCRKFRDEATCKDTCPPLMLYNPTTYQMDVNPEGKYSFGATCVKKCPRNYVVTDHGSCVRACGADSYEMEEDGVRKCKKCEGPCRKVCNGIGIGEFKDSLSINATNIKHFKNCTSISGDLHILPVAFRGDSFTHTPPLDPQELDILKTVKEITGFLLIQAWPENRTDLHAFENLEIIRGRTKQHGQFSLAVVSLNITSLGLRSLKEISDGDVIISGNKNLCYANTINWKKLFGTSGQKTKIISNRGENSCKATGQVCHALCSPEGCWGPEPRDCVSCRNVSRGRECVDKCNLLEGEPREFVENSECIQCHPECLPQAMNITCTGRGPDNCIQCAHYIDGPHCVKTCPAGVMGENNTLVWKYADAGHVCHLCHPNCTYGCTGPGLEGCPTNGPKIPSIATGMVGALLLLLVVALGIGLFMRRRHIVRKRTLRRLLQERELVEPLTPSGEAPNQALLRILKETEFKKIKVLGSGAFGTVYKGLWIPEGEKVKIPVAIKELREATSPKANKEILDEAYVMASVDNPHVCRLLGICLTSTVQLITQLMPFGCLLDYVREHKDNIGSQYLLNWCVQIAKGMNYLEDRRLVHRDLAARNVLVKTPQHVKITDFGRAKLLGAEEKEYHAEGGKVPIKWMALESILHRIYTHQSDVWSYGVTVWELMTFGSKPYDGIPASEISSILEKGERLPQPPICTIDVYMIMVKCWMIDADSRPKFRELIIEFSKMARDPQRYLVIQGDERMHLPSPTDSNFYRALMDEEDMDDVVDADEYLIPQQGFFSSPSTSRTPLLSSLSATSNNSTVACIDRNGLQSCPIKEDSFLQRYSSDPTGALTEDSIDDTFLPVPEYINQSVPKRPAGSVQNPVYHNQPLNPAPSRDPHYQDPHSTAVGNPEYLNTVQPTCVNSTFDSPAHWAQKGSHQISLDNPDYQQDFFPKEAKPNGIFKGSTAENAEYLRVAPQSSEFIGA
T3 sequence (Q96GD4 whole entry): as the sequence (Q96GD4 whole entry) above
Sequence of Epidermal growth factor receptor (Homo sapiens, UniProt P00533) (P00533 whole entry): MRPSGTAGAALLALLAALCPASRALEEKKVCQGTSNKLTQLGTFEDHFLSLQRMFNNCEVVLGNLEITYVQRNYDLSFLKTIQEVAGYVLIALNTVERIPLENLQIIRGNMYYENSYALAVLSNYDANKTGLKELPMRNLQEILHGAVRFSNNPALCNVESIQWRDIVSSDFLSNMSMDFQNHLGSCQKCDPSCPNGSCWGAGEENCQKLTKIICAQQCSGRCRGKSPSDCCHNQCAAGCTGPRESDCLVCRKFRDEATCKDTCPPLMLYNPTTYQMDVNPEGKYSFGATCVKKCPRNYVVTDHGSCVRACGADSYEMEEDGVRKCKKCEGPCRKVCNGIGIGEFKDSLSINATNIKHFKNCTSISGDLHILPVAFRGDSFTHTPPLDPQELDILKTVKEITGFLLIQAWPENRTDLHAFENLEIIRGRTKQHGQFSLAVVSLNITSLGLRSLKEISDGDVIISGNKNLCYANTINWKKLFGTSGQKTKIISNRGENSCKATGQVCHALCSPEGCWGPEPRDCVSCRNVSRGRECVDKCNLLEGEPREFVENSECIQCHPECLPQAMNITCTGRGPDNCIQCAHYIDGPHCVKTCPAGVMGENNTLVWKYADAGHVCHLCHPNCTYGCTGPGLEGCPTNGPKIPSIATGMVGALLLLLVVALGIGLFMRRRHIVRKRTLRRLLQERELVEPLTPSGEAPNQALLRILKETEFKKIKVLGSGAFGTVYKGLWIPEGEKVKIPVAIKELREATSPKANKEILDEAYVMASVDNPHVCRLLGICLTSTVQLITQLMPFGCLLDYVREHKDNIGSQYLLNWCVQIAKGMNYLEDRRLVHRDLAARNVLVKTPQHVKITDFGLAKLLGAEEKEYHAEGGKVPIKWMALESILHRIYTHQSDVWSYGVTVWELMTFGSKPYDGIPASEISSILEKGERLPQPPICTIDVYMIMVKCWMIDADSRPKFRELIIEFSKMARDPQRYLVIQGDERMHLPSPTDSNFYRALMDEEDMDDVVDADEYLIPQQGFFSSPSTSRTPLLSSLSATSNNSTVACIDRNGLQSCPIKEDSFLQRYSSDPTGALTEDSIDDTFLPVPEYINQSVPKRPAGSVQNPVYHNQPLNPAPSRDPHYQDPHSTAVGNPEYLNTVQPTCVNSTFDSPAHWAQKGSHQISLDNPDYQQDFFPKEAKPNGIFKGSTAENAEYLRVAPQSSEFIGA
Description for NCI-H1975: Anticancer activity against TKI resistant human NCI-H1975 cells harboring EGFR L858R/T790M mutant assessed as inhibition of cell growth

As to `COc1cc2c(Nc3ccc(NC(=O)c4ccccc4)cc3)ncnc2cc1OCCCN1CCOCC1`, the Kd in experiment [1] came out at 0.22 µM; in experiment [2] it was 0.88 µM.

`Brc1cccc(Nc2ncnc3[nH]ccc23)c1`: the IC50 amounted to 0.003 µM in experiment [3]; 2.77 µM in experiment [4]; 20.4 µM in the experiment on A549; 3.8 µM in experiment [5]; 0.003 µM in experiment [6].

`O=C(Nc1ccccc1)c1ccc(Nc2ncnc3[nH]ccc23)cc1`: the results for the IC50 (in experiment [4]; against Aurora kinase B [7]; in experiment [5]) were 0.8 µM, 14.7 µM and 0.05 µM, respectively.

Consider `Cn1nccc1-c1cc2c(Nc3ccc(OCc4ccccc4)cc3)ncnc2[nH]1`, for which the IC50 in experiment [3] was 0.07 µM; in [4] it was 4 µM; in the experiment on A549 it was 2.92 µM; in experiment [5], 1.1 µM; in the experiment on NCI-H1975, above 50 µM; in [6], 0.069 µM. Besides, the figures for the Kd (in experiment [2]; at Aurora kinase B [8]) were 0.21 µM and above 30 µM, respectively.

`COc1cccc2c1C(=O)c1c(O)c3c(c(O)c1C2=O)C[C@@](O)(C(=O)CO)C[C@@H]3O[C@H]1C[C@H](N)[C@H](O)[C@H](C)O1` [DOXORUBICIN]: the IC50 in the experiment on A549 was determined as 0.059 µM.

These data come from ChEMBL document CHEMBL5625257, “Design, synthesis, and evaluation of dual EGFR/AURKB inhibitors as anticancer agents for non-small cell lung cancer” (Bioorg Med Chem Lett, 2024).
